Counter-ions that a name gives are not always drawn. Like-named read-outs stand apart in the source and are kept apart here.
What was measured:
5HT2B [1] = molecular target: T1, 5HT2B (Homo sapiens, UniProt P41595); assay: Functional activity IC50 (5HT2B antagonist); type: cell-based
HLM T1/2 = conditions: human, liver microsomes
Rat pK = conditions: in vivo; for bioavailability: read-out: Rat pK: % F
hERG = hERG (Homo sapiens, UniProt Q12809); assay: hERG % inhibition at 1 uM
IP3 = assay: IC50 (IP3); type: cell-based
D2S [2] = molecular target: T2, D2S (Homo sapiens, UniProt P14416); assay: D2S binding (Ki)
5HT2B [3] = molecular target: T1, 5HT2B; assay: 5HT2B binding (Ki of Biological Data Table)
% Protein Binding = type: in vitro ADME
AMES Test = type: cell-based
D2L = D2L (Homo sapiens, UniProt P14416); assay: Functional activity D2L; type: cell-based
5HT2A [4] = molecular target: T3, 5HT2A (Homo sapiens, UniProt P28223); assay: 5HT2A binding (Ki)
5HT1A [5] = molecular target: T4, 5HT1A (Homo sapiens, UniProt P08908); assay: 5HT1A binding (Ki)
T4 sequence (P08908 1-422): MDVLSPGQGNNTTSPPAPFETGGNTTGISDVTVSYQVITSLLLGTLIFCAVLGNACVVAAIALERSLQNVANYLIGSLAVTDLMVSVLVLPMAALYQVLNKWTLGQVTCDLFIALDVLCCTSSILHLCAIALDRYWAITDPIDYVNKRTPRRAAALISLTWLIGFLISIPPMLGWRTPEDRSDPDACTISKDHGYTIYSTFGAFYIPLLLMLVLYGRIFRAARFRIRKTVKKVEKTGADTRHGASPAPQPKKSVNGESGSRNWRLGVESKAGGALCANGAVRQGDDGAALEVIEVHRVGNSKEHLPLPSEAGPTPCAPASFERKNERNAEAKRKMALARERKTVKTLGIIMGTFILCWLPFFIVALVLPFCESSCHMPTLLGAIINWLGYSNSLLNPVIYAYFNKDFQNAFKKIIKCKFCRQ

D2S [6] = molecular target: T2, D2S; assay: Functional activity D2S; type: cell-based
5HT2A [7] = molecular target: T3, 5HT2A; assay: Functional activity 5HT2A; type: cell-based
5HT1A [8] = molecular target: T4, 5HT1A; assay: Functional activity 5HT1A; type: cell-based
D4.4 = molecular target: T5, D4.4 (Homo sapiens, UniProt P21917); assay: D4.4 binding (Ki)
T5 sequence (P21917 1-419): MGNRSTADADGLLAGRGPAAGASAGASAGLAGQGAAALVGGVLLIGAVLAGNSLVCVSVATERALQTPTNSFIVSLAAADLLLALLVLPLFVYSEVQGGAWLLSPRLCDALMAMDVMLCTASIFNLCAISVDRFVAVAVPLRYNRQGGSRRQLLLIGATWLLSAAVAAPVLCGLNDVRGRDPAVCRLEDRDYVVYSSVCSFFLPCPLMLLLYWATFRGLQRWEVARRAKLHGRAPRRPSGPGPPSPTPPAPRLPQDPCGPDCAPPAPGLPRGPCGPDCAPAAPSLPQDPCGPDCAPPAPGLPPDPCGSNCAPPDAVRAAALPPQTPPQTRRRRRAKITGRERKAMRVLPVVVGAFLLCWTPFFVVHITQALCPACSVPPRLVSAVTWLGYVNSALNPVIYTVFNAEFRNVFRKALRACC

D3 = D3 (Homo sapiens, UniProt P35462); assay: D3 binding (Ki)
D4 = molecular target: T6, D4 (Homo sapiens, UniProt P21917); assay: D4 binding (Ki)
T6 sequence (P21917 1-419): T5 sequence (P21917 1-419)

[9] = po, read-out: Rat pK: T1/2 (po)
[10] = iv, read-out: Rat pK: T1/2 (iv)

T1 sequence (P41595 whole entry, species assumed): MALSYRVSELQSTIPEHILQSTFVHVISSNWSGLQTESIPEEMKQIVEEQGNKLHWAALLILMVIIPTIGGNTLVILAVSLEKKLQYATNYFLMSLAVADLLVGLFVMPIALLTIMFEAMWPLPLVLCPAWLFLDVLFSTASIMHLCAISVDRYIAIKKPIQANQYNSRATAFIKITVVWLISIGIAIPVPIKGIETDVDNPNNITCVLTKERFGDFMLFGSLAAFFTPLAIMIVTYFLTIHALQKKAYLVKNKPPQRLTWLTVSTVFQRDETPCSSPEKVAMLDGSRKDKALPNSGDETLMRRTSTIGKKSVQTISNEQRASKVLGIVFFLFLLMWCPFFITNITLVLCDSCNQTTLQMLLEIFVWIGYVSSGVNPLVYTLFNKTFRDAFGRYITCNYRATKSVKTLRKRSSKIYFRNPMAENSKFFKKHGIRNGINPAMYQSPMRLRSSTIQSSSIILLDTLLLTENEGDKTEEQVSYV
T2 sequence (P14416 1-414 isoform P14416-2): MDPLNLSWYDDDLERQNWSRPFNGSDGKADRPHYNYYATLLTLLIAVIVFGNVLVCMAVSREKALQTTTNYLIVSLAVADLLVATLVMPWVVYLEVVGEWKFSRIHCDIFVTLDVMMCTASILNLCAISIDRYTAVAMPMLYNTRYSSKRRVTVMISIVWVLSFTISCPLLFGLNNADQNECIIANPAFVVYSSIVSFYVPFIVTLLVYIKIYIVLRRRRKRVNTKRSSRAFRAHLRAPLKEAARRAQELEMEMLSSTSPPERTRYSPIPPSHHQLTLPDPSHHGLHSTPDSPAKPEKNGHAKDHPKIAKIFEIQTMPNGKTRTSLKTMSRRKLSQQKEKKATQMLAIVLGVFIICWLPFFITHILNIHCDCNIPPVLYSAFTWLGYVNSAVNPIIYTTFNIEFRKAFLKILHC
hERG, sequence (Q12809 whole entry): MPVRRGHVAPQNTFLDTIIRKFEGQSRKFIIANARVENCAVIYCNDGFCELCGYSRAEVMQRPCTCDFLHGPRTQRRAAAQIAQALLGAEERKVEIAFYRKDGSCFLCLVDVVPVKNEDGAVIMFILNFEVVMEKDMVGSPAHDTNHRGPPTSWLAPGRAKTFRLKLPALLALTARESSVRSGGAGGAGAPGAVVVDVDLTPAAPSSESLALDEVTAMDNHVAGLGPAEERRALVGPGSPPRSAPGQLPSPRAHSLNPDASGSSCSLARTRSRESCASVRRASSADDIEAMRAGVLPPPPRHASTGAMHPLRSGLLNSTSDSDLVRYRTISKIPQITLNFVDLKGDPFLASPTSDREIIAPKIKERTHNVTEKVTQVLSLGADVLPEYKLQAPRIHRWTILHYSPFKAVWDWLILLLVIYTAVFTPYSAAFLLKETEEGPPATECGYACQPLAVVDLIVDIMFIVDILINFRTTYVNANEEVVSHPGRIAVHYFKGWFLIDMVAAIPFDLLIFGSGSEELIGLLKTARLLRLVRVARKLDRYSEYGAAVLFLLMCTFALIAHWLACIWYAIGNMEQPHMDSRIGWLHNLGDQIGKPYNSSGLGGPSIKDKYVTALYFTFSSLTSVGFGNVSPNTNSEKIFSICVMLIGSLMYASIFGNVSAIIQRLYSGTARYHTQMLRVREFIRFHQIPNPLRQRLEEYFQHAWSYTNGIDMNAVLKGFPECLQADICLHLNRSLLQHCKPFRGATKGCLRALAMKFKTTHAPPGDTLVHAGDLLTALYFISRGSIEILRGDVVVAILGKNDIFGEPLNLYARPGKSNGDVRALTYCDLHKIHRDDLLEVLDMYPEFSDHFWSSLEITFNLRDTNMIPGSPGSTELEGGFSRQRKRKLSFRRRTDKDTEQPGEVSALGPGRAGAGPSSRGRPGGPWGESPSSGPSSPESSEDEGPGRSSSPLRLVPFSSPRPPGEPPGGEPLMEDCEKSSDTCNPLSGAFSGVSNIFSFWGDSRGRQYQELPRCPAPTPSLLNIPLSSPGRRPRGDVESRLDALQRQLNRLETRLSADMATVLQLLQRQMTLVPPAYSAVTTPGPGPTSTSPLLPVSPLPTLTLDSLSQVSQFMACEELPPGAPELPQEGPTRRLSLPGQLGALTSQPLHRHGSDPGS
T3 sequence (P28223 whole entry, species assumed): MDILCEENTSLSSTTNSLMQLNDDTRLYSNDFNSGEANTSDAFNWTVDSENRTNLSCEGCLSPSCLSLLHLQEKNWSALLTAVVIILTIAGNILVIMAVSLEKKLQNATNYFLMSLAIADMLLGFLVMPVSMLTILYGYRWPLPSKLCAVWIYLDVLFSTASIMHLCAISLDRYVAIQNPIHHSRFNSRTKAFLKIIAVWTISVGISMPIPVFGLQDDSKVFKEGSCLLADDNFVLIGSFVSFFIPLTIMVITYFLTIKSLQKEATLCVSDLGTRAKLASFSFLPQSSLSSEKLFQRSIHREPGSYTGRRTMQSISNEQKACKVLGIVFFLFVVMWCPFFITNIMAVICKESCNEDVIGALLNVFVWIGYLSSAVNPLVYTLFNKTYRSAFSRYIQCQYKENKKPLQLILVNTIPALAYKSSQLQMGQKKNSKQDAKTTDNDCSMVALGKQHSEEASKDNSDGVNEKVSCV
D2L, sequence (P14416 whole entry): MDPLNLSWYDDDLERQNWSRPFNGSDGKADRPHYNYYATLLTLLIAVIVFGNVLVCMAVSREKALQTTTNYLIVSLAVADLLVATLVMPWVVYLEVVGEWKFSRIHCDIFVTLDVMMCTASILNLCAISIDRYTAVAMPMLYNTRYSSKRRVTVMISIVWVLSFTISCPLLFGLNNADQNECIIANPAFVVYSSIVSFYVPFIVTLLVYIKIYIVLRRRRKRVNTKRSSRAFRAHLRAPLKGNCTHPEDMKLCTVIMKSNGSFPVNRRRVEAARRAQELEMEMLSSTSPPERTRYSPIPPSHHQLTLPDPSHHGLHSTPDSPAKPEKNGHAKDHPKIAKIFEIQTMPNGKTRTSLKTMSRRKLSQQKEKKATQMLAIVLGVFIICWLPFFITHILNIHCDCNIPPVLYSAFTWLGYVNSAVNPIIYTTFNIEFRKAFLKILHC
D3, sequence (P35462 whole entry): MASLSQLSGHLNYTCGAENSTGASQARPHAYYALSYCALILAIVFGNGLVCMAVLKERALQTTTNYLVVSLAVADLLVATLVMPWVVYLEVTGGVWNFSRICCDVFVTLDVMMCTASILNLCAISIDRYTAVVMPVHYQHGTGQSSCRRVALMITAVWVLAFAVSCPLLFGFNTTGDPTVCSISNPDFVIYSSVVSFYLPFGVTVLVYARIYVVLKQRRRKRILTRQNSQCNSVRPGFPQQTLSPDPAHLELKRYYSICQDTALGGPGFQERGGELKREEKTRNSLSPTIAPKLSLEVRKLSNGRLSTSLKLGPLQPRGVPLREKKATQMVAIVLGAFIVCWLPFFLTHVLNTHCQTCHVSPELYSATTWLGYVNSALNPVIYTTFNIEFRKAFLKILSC

| SMILES | IC50 (5HT2B [1]) [nM] | half-life (HLM T1/2) [min] | half-life (Rat pK; [9]) [min] | Ki (D2S [2]; NA: Not Active) [nM] | bioavailability (Rat pK; po) [%] | hERG (% Inhibition at 1 uM) (hERG) | other results |
| --- | --- | --- | --- | --- | --- | --- | --- |
| CC(c1cccc(F)c1)N1CCC(Nc2ncnc3sccc23)CC1 (stereo not drawn) [Example B12, N-(1-(1-(3-fluorophenyl)ethyl)piperidin-4-yl) thieno[2,3-d]pyrimidin-4-amine, dihydrochloride] |  | 11 |  | 250 |  | hERG (% Inhibition at 1 uM): 58.5 |  |
| CC(C)Cc1cc2c(NC3CCN(C(C)c4cccc(F)c4)CC3)ncnc2s1 (stereo not drawn) [Example B14, N-(1-(1-(3-fluorophenyl)ethyl)piperidin-4-yl)-6-isobutylthieno[2,3-d] pyrimidin-4-amine, dihydrochloride] | 5300 | < 15 | 30 |  | 4 | 76.1% | half-life (Rat pK; [10]): 30 min |
| Fc1cc(F)cc(CN2CCC(Nc3ncnc4sc(Cl)cc34)CC2)c1.O=C(O)/C=C\C(=O)O [Example B34, N-(1-(3,5-difluorobenzyl)piperidin-4-yl)-6-chlorothieno[2,3-d]pyrimidin-4-amine, monomaleate] | 680 |  | 66 | 66 | 29.1 | 29.4% | AMES Test (AMES Test): Negative; fraction unbound (% Protein Binding): 0.01; IC50 (D2L): 17.2 nM; Ki (5HT2A [4]): 260 nM; IC50 (IP3): 0.74 nM; Ki (5HT1A [5]): 35 nM; IC50 (D2S [6]): 63.3 nM; Functional Activity IC50 (5HT2A) (5HT2A [7]): Not Active; Functional Activity IC50 (5HT1A) (5HT1A [8]): Not Active; Ki (D4.4): 3.4 nM; half-life (Rat pK; [10]): 24 min; Ki (D3): 140 nM |
| Cc1c(Cl)sc2ncnc(NC3CCN(Cc4cccc(F)c4)CC3)c12.O=C(O)/C=C\C(=O)O [Example B38, N-(1-(3-fluorobenzyl)piperidin-4-yl)-6-chloro-5-methylthieno[2,3-d]pyrimidin-4-amine, monomaleate] | 560 |  | 54 | 170 | 18.2 | 78.1% | fraction unbound (% Protein Binding): 0.062; IC50 (IP3): 2.27 nM; half-life (Rat pK; [10]): 24 min |
| Fc1ccc(-c2c(Cl)sc3ncnc(NC4CCN(Cc5cc(F)cc(F)c5)CC4)c23)cc1 [Example B48, N-(1-(3,5-difluorobenzyl)piperidin-4-yl)-6-chloro-5-(4-fluorophenyl) thieno[2,3-d]pyrimidin-4-amine, monomaleate] |  | < 15 |  |  |  |  | Ki (5HT1A) (5HT1A [5]): not Active; Ki (D2S [2]): 1100 nM |
| N#Cc1cc(CN2CCC(Nc3ncnc4sc(Cl)cc34)CC2)ccc1F [Example B50, 5-((4-(6-chlorothieno [2,3-d]pyrimidin-4-ylamino)piperidin-1-yl)methyl)-2-fluorobenzonitrile, monomaleate] | 27 | 28 | 53.4 | 670 | 22.6 | 23.7% | AMES Test (AMES Test): Negative; Ki (5HT1A [5]): 100 nM; Ki (D4.4): 5.4 nM; half-life (Rat pK; [10]): 37.2 min |
| CNC(=O)c1cccc(CN2CCC(Nc3ncnc4sc(Cl)cc34)CC2)c1 [Example B55, 3-((4-(6-chlorothieno [2,3-d]pyrimidin-4-ylamino)piperidin-1-yl)methyl)-N-methylbenzamide, monomaleate] |  | 34 |  |  |  |  | Ki (D4): 330 nM |
| CS(=O)(=O)c1cccc(CN2CCC(Nc3ncnc4sc(Cl)cc34)CC2)c1 [Example B58, N-(1-(3-(methylsulfonyl)benzyl)piperidin-4-yl)-6-chlorothieno[2,3-d]pyrimidin-4-amine, monomaleate] |  | 27 |  |  |  |  | Ki (D4; read-out: Ki (D4)): 430 nM; Ki (D2S [2]): > 10000 nM |

The next lines start with results.

| IC50 (5HT2B [1]) [nM] | half-life (HLM T1/2) [min] | half-life (Rat pK; [9]) [min] | Ki (D2S [2]; NA: Not Active) [nM] | bioavailability (Rat pK; po) [%] | SMILES | hERG (% Inhibition at 1 uM) (hERG) | other results |
| --- | --- | --- | --- | --- | --- | --- | --- |
| 110 | < 15 | 60 |  |  | c1ccc(CN2CCC(Nc3ncnc4sc5c(c34)CCCC5)CC2)cc1 [Example B1, N-(1-benzylpiperidin-4-yl)5,6,7,8-tetrahydro-benzo[4,5]thieno[2,3-d]pyrimidin-4-amine] |  |  |
| 100 | 4.3 |  | 240 |  | Fc1cccc(CN2CCC(Nc3ncnc4sc5c(c34)CCCC5)CC2)c1 [Example B3, N-(1-(3-fluorobenzyl)piperidin-4-yl)5,6,7,8-tetrahydro-bcnzo[4,5]thieno[2,3-d]pyrimidin-4-amine] | 58.5% | IC50 (IP3): 22.5 nM |
|  | < 15 |  |  |  | N#Cc1cccc(CN2CCC(Nc3ncnc4sc5c(c34)CCCC5)CC2)c1 [Example B11, 3-((4-(5,6,7,8-tetrahydro-benzo[4,5]thieno[2,3-d]pyrimidin-4-ylamino)piperidin-1-yl)methyl)benzonitrile, dihydrochloride] | hERG (% Inhibition at 1 uM): 44.9 | % at 1 nM (5HT2B) (5HT2B [3]; 1 nM): 35%; % at 10 nM (5HT2B) (5HT2B [3]; 10 nM): 82%; % at 100 nM (5HT2B) (5HT2B [3]; 100 nM): 101% |
| 1300 | < 15 |  |  |  | CC(c1cc(F)cc(F)c1)N1CCC(Nc2ncnc3sc4c(c23)CCCC4)CC1 (stereo not drawn) [Example B17, N-(1-(1-(3,5-difluorophenyl)ethyl)piperidin-4-yl)5,6,7,8-tetrahydro-benzo [4,5]thieno[2,3-d] pyrimidin-4-amine, dihydrochloride] |  |  |
| 5700 | 7 | 24 |  | 3 | CC(C)Cc1cc2c(NC3CCN(C(C)c4cc(F)cc(F)c4)CC3)ncnc2s1 (stereo not drawn) [Example B18, N-(1-(1-(3,5-difluorophenyl)ethyl)piperidin-4-yl)-6-isobutylthieno[2,3-d]pyrimidin-4-amine, dihydrochloride] | 31% | fraction unbound (% Protein Binding): 0.062; half-life (Rat pK; [10]): 12 min |
| 1600 | 19 | 48 |  | 17 | Fc1cc(F)cc(CN2CCC(Nc3ncnc4sccc34)CC2)c1 [Example B30, N-(1-(3,5-difluorobenzyl)piperidin-4-yl) thieno[2,3-d]pyrimidin-4-amine, dihydrochloride] | 62% |  |
| 830 | 8 | 30 | 230 | 10 | CC(C)c1cc2c(NC3CCN(Cc4cc(F)cc(F)c4)CC3)ncnc2s1 [Example B31, N-(1-(3,5-difluorobenzyl)piperidin-4-yl)-6-isopropylthieno [2,3-d] pyrimidin-4-amine, dihydrochloride] |  |  |
| 450 |  |  |  |  | CC(C)c1cc2c(NC3CCN(Cc4cc(F)cc(F)c4)CC3)ncnc2s1 [Example B32, N-(1-(3,5-difluorobenzyl)piperidin-4-yl)-6-isopropylthieno [2,3-d] pyrimidin-4-amine, monomaleate] |  | IC50 (IP3): 1.53 nM |
|  | 12 |  |  |  | Clc1cc2c(NC3CCN(Cc4cccnc4)CC3)ncnc2s1 [Example B47, 6-chloro-N-(1-((pyridin-3-yl)methyl)piperidin-4-yl)thieno [2,3-d]pyrimidin-4-amine, monomaleate] |  | Ki (D2S [2]): > 10000 nM |
|  | < 15 |  |  |  | O=S(=O)(c1cccc(CN2CCC(Nc3ncnc4sc(Cl)cc34)CC2)c1)C(F)(F)F [Example B56, N-(1-(3-(trifluoromethylsulfonyl)benzyl)piperidin-4-yl)-6-chlorothieno[2,3-d] pyrimidin-4-amine, monomaleate] |  | Ki (D4; read-out: Ki (D4)): 180 nM; Ki (D2S [2]): 3100 nM |
|  | 24 |  |  |  | CN(C)C(=O)c1cccc(CN2CCC(Nc3ncnc4sc(Cl)cc34)CC2)c1 [Example B57, 3-((4-(6-chlorothieno[2,3-d]pyrimidin-4-ylamino)piperidin-1-yl)methyl)-N,N-dimethylbenzamide, monomaleate] |  | Ki (D4; read-out: Ki (D4)): 540 nM |
